From patent publication US12173018B2, “Penicillin-binding protein inhibitors” (priority 2018, dated 2024)
In brackets after ≈: the same amount, converted by molar mass. Read-outs that look alike come from different tables or passages of the source.

Columns and labels:
[1] = tested on: P. aeruginosa (ΔmexAB-oprM); assay: microbe, parasite or virus in culture; assay type: cell-based; details: Pseudomonas aeruginosa, read-out: MIC P. aeruginosa ΔmexAB-OprM
Outline: (§1)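 Colonies from Mueller Hinton II agar were grown 3-5 hours at 37° C in cation-supplemented broth, adjusted by OD600, then added to 2-fold compound dilutions at 5×10^5 CFU/mL. After 16-20 hours at 37° C, MICs were scored visually.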

P. aeruginosa ATCC 35151 = assay: microbe, parasite or virus in culture; assay type: cell-based; details: Pseudomonas aeruginosa, ATCC35151; hyper-permeable P. aeruginosa ATCC 35151; read-out: MIC P. aeruginosa ATCC 35151
Outline: as §1

P. aeruginosa PAO1 = assay: Broth microdilution MIC, P. aeruginosa PAO1; assay type: cell-based; details: Pseudomonas aeruginosa
Protocol: (§2) To determine the ability of test compounds to potentiate the inhibition of the growth of bacterial strains, classic cell based broth microdilution minimum inhibitory concentration (MIC) assays were employed. MIC assays are performed according to CLSI methods except where otherwise noted (CLSI, 2011 and CLSI, 2009). The reference type strain E. coli ATCC 25922, the wild-type parent strain E. coli AG100, the hyper-permeable E. coli 901C and E. coli D22 and the E. coli AG100A strain lacking the acrAB efflux pump encoding genes were used to determine the ability of the PBP inhibitors to penetrate the outer membrane of gram-negative bacteria and inhibit bacterial growth. […] The P. aeruginosa PAO1, P. aeruginosa ATCC 27853 and A. baumannii ATCC 19606, along with the hyper-permeable P. aeruginosa ATCC 35151 and an engineered efflux pump-compromised strain of P. aeruginosa (ΔmexAB-oprM) were used to determine the ability of PBP inhibitors to penetrate the outer membrane of P. aeruginosa and A. baumannii and assess antibacterial activity against these important gram-negative organisms.
(§3) Briefly, cryo-preserved bacterial cultures of challenge strains are streaked for isolation on appropriate agar medium, in this case Mueller Hinton II agar. Following incubation to allow growth of the colonies, plates are sealed with parafilm and stored refrigerated for up to two weeks. For preparation of assay inoculum and to ensure low variability, at least 5 colonies are picked from the agar plates with an inoculating loop and aseptically transferred to a culture tube containing 3 mL of Mueller-Hinton Broth (supplemented with divalent cations to required levels based on Manufacturers' certification). The broth culture is grown for 3-5 hours at 37° C. with shaking at 200 rpm. Meanwhile, 2-fold serial dilutions of test compounds are conducted in a 96 well plate with a final volume of 75 μL per well at 2-fold the final desired concentration. After the dilution plates are set up the growing cultures are then diluted in a cuvette containing MH II broth and the optical density is measured at 600 nm. The Inoculum is diluted such that 75 μL of this culture in Mueller-Hinton Broth results in a starting bacterial concentration of 5×10^5 CFU/mL when added to the dilution plates. The plates are incubated for 16-20 hours at 37° C. The MIC values are read visually as the lowest concentration well with no bacterial growth.

[2] = tested on: engineered strain of Escherichia coli harboring CTX-M15; assay: microbe, parasite or virus in culture; assay type: cell-based; details: Escherichia coli, read-out: Microbiological Activity (MIC in mg/L), E. coli DH5α/pLBII-CTX-M15, engineered strain producing CTX-M15
E. coli PBP3 = E. coli PBP3 (Escherichia coli (strain K12), UniProt P0AD68); assay: E. coli PBP3 Bocillin-FL fluorescence polarization competition binding assay
Outline: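 FP competition: 1.5 μM PBP, 0.1 μM Bocillin-FL, cpd 0–1000 μM; 50 mM Hepes pH 8.0/300 mM NaCl/5% glycerol. Read 490/520 nm immediately after Bocillin-FL addition, 60 min. EC50 = cpd conc. lowering probe binding.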

E. coli ATCC 25922 = assay: Broth microdilution MIC, E. coli ATCC 25922; assay type: cell-based; details: Escherichia coli
Outline: as §1

E. coli AG100 = assay: Broth microdilution MIC, E. coli AG100 (wild-type parent); assay type: cell-based; details: Escherichia coli; wild-type parent E. coli AG100, broth microdilution; read-out: MIC E. coli AG100
Outline: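 Broth microdilution in cation-supplemented Mueller-Hinton broth, 2-fold serial compound dilutions, inoculum 5×10^5 CFU/mL from 3-5 h log culture.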

E. coli 901C = assay: microbe, parasite or virus in culture; assay type: cell-based; details: Escherichia coli; hyper-permeable E. coli 901C, broth microdilution; read-out: MIC E. coli 901C
Outline: as §1

E. coli AG100A = assay: microbe, parasite or virus in culture; assay type: cell-based; details: Escherichia coli, read-out: MIC E. coli AG100A
Outline: as §1

E. coli D22 = assay: microbe, parasite or virus in culture; assay type: cell-based; details: Escherichia coli; hyper-permeable E. coli D22, broth microdilution; read-out: MIC E. coli D22
Outline: as §1

K. pneumoniae SI-117 = assay: microbe, parasite or virus in culture; assay type: cell-based; details: Klebsiella pneumoniae, SI117, read-out: MIC K. pneumoniae SI-117
Outline: as §1

K. pneumoniae UMM = assay: microbe, parasite or virus in culture; assay type: cell-based; details: Klebsiella pneumoniae; K. pneumoniae UMM producing SHV-5 and KPC-2; read-out: MIC K. pneumoniae UMM
Outline: as §1

K. pneumoniae 848844 = assay: microbe, parasite or virus in culture; assay type: cell-based, Klebsiella pneumoniae; details: Klebsiella pneumoniae; K. pneumoniae 848844 producing SHV-11 and KPC-2; read-out: MIC K. pneumoniae 848844
Outline: as §1

A. baumannii ATCC 19606 = assay: Broth microdilution MIC, A. baumannii ATCC 19606; assay type: cell-based; details: Acinetobacter baumannii
Protocol: as §2, §3

[3] = PAO1, read-out: MIC P. aeruginosa PAO1
[4] = ATCC25922, E. coli ATCC 25922, broth microdilution, read-out: MIC E. coli 25922
[5] = P. aeruginosa PAO1, broth microdilution, read-out: MIC P. aeruginosa PAO1
[6] = ATCC19606, A. baumannii ATCC 19606, broth microdilution, read-out: MIC A. baumannii ATCC 19606

E. coli PBP3, sequence (P0AD68 whole entry): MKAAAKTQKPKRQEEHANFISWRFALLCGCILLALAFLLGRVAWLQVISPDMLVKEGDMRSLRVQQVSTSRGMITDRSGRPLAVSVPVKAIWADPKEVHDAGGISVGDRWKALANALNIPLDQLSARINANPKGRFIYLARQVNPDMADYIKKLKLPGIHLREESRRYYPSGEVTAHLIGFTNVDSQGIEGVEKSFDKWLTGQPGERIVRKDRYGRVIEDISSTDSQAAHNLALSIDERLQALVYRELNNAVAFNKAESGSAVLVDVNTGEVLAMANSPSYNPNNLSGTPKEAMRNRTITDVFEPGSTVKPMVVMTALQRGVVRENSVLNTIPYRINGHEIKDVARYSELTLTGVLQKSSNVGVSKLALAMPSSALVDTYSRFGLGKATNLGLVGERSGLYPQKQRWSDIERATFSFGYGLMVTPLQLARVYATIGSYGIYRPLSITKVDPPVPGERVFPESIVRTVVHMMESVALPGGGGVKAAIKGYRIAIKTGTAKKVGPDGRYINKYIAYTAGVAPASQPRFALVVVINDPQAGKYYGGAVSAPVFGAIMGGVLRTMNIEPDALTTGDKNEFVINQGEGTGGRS

Row | SMILES | MIC [1] [µg/mL] | MIC (P. aeruginosa ATCC 35151) [µg/mL] | MIC (P. aeruginosa PAO1; [3]) [µg/mL] | MIC [2] [mg/L] | EC50 (E. coli PBP3) [µM] | MIC (E. coli ATCC 25922; [4]) [µg/mL] | MIC (E. coli AG100) [µg/mL] | MIC (E. coli 901C) [µg/mL] | MIC (E. coli AG100A) [µg/mL] | MIC (E. coli D22) [µg/mL] | MIC (K. pneumoniae SI-117) [µg/mL] | MIC (K. pneumoniae UMM) [µg/mL] | MIC (K. pneumoniae 848844) [µg/mL] | MIC (P. aeruginosa PAO1; [5]) [µg/mL] | MIC (A. baumannii ATCC 19606; [6]) [µg/mL] | EC50 (E. coli PBP3; fluorescence polarization competition binding with Bocillin-FL, read-out: E. coli K12 PBP3 Potency) [µM] | MIC (E. coli ATCC 25922; ATCC25922, read-out: MIC E. coli 25922) [µg/mL] | MIC (A. baumannii ATCC 19606; ATCC19606, read-out: MIC A. baumannii ATCC 19606) [µg/mL]
1 | CCN1CCN(C(=O)NC(C(=O)N[C@H]2Cc3cccc(C(=O)O)c3OB2O)c2ccc(OC)nc2Cl)C(=O)C1=O (stereo partly drawn) [Example 65, (3R)-3-(2-(2-chloro-6-methoxypyridin-3-yl)-2-(4-ethyl-2,3-dioxopiperazine-1-carboxamido)acetamido)-2-hydroxy-3,4-dihydro-2H-benzo[e][1,2]oxaborinine-8-carboxylic acid] | 32 to 64 | 8 to 16 | > 128 | 128 to 256 (≈ 223 to 446 µM) |  |  |  |  |  |  |  |  |  |  |  |  |  | 
2 | O=C(O)c1cccc2c1OB(O)[C@@H](NC(=O)C(NC(=O)N1C[C@H]3CCCN3C(=O)C1=O)c1ccc(O)c(O)c1Cl)C2 (stereo partly drawn) [Example 232, (3R)-3-(2-(2-chloro-3,4-dihydroxyphenyl)-2-((R)-3,4-dioxooctahydropyrrolo[1,2-a]pyrazine-2-carboxamido)acetamido)-2-hydroxy-3,4-dihydro-2H-benzo[e][1,2]oxaborinine-8-carboxylic acid] | < 0.25 | < 0.25 |  |  | 30 to 500 | > 128 | 8 to 16 | 8 to 16 | 8 to 16 | 8 to 16 | 32 to 64 | 32 to 64 | 8 to 16 | 32 to 64 | > 128 |  |  | 
3 | CCN1CCN(C(=O)N[C@@H](C(=O)N[C@H]2Cc3cccc(C(=O)O)c3OB2O)c2ccc(S(N)(=O)=O)c(OC)c2)C(=O)C1=O [Example 169, (R)-3-((R)-2-(4-ethyl-2,3-dioxopiperazine-1-carboxamido)-2-(3-methoxy-4-sulfamoylphenyl)acetamido)-2-hydroxy-3,4-dihydro-2H-benzo[e][1,2]oxaborinine-8-carboxylic acid] | 8 to 16 | 0.5 to 1 |  |  | 30 to 500 | 32 to 64 | 32 to 64 | < 0.25 | 8 to 16 | 2 to 4 | > 128 | > 128 | > 128 | > 128 | > 128 |  |  | 
4 | NS(=O)(=O)c1ccc([C@@H](NC(=O)N2CCN(CCBr)C(=O)C2=O)C(=O)N[C@H]2Cc3cccc(C(=O)O)c3OB2O)cc1O [Example 172, (R)-3-((R)-2-(4-(2-bromoethyl)-2,3-dioxopiperazine-1-carboxamido)-2-(3-hydroxy-4-sulfamoylphenyl)acetamido)-2-hydroxy-3,4-dihydro-2H-benzo[e][1,2]oxaborinine-8-carboxylic acid] | 2 to 4 | < 0.25 | > 128 |  |  |  | 32 to 64 | 0.5 to 1 | 8 to 16 | 8 to 16 | > 128 | 32 to 64 | > 128 |  |  | < 30 | 32 to 64 | > 128
